# Source: US9125930B2, “EGFR aptamer inhibitor for use in therapy and diagnosis” (CONSIGLIO NAZIONALE DELLE RICERCHE, priority 2010, dated 2015)
# Columns and labels:
# [1] = target: T1, soluble extracellular domain of human ErbB3 (EC-ErbB3) (Homo sapiens, UniProt P21860); experiment: Filter binding on soluble extracellular domain of ErbB3
# T1 construct: purchased R&D Systems
# Procedure: (§1) Binding experiments were performed with 5′-[^32P]-labeled RNA. For labeling 2′-F-Py RNAs were 5′-end dephosphorylated using bacterial alcaline phosphatase (Invitrogen, Carlsbad, Calif.) before [^32P]-5′-end-labeled using T4 kinase (Invitrogen) and γ-[^32P]-ATP (6×10^3 Ci/mmol, GE Healthcare Bio-Sciences, Uppsala, Sweden) according to the supplier's instructions.
# (§2) The aptamers ability to bind EGFR or ErbB3 soluble extracellular domain (EC-EGFR and EC-ErbB3) was investigated by filter binding by plotting the fraction of RNA bound to the nitrocellulose filter as a function of protein concentration, using the following equation:
# (§3) [formula] where Bmax is the extrapolated maximal amount of RNA:protein complex that will be bound. 1 nM of radiolabelled aptamers (CL4 42-81 aptamer or the scrambled sequence) were incubated with 1, 3.2, 10, 32, 100, 320 and 1000 nM of EC-EGFR and EC-ErbB3 (all from R&D Systems, Minneapolis, Minn.) for 15 min at 37° in phosphate-buffered saline (PBS) supplemented with 0.01% bovine serum albumin.
# (§4) In order to test the binding for dimeric and monomeric proteins, 1 nM of radiolabelled aptamers (CL4 42-81 or scrambled) were incubated with 20 nM of EC-EGFR and EC-ErbB3 without or with 5 mM DTT.
# (§5) After incubation, the aptamer-protein mix was passed through nitrocellulose membrane filter (Millipore Co., Bedford, Mass.) and filters were counted. […]
# [2] = target: T2, soluble extracellular domain of human EGFR (EC-EGFR) (Homo sapiens, UniProt P00533); experiment: Filter binding on soluble extracellular domain of EGFR
# T2 construct: purchased R&D Systems
# Procedure: as §1, §2, §3, §4, §5
# T1 sequence (P21860 20-643 limits assumed): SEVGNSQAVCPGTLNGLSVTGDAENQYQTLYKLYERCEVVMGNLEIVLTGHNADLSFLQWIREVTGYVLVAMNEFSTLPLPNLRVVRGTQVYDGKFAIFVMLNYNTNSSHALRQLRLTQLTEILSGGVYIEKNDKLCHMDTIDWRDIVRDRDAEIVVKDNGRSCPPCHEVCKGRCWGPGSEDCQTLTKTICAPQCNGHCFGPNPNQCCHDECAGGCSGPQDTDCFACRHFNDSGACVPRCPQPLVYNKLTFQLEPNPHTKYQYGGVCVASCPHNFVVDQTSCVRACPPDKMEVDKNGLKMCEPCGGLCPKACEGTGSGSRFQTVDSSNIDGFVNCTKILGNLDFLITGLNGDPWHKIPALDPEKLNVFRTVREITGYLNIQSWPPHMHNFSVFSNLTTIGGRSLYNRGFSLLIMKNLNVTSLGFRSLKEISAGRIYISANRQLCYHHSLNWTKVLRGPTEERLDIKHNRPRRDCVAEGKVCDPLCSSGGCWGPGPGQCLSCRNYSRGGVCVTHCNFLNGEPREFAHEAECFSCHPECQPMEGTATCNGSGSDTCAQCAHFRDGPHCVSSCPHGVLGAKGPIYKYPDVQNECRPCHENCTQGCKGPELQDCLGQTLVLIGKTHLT
substance,measurement,setting,value
"CL4 42-81: 2′-fluoropyrimidine nuclease-resistant RNA aptamer of 39 nt: 5′ GCCUUAGUAACGUGCUUUGAUGUCGAUUCGACAGGAGGC 3′ (SEQ ID No. 1) (2'-fluoro at CU, RNA at AG, backbone not given here)","affinity for EC-ErbB3, magnitude lower",[1]; does not bind or binds with lower affinity,at least 10^3
same,Kd,"[1]; filter binding, EC-ErbB3, protein up to 1000 nM",no Kd value could be calculated
same,Kd,[2],10 nM
